Measured values from paper PMC8566951, “Antifungal Activity of ToAP2D Peptide Against Sporothrix globosa” (Frontiers in Bioengineering and Biotechnology, 2021).
No end group written: not given here.

Legend:
[1] = Serum stability by inhibition zone test; assay type: in vitro ADME; settings: human serum diluted 1:1 with 0.9% normal saline, ToAP2D 4 mg/ml, 10 h at 37°C, read-out inhibition zone after 24 h
Method: The stability of ToAP2D in human serum was analyzed using the inhibition zone test. 5 ml of healthy human blood (from the physical examination center of our hospital) was extracted using a sterile syringe, stored at room temperature for 1 h, and then stored at 4°C overnight. After 24 h, the blood was centrifuged at 1,000 rpm/min for 10 min, and 50 µL of serum in the supernatant was gently sucked out with a pipette gun. The serum was diluted with 50 µL of 0.9% normal saline, and then, the antimicrobial peptide ToAP2D was dissolved in the diluted serum.
To determine the stability of ToAP2D in human serum, ToAP2D (final concentration 4 mg/ml) was mixed with the diluted serum for 0, 0.5, 1, 2, 4, 6, 8, and 10 h at 37°C, respectively. In brief, S. globosa was inoculated on brainheart infusion broth agar plates, 5.0 mm paper disks were placed on top, and 6 µL aliquots of the serumpeptide mixture were added to the paper disks at each incubation time point. After 24 h of incubation, the inhibitory zones against S. globosa were measured and recorded.

[2] = system: S. globosa; experiment: Minimal inhibitory concentration, microdilution assay; assay type: cell-based, Sporothrix globosa; settings: brainheart infusion broth, 1 × 10^8 cfu/ml, 37°C, 7 days, at least three experiments
Method: The minimal inhibitory concentration (MIC) of ToAP2D against S. globosa was determined using the microdilution assay. In brief, twofold serial dilutions of ToAP2D were prepared in 96-well polystyrene microplates to a final volume of 100 µL. Final concentrations of ToAP2D ranged from 5 mg/ml to 0.62 μg/ml. In each plate, wells were included without peptide as control. Then, 100 µL of the liquid medium (brainheart infusion broth) was added to each well with a final concentration of 1 × 10^8 cfu/ml for S. globosa. The plates were incubated at 37°C for 7 days. In addition, 20 µL of culture from each well was inoculated on the brainheart solid medium and cultured in a constant temperature incubator at 37°C for 7 days to observe the growth of colonies. […] The experiments were performed at least three times on separate dates.

[3] = Acute toxicity, HE staining of major organs; assay type: in vivo; settings: BALB/c mice, 60 mg/kg tail vein, organs after 24 h, n = 5
Method: To examine their toxicity, an in vivo animal study was performed. The 10 healthy BALB/c mice were randomly divided into ToAP2D group (n = 5) and the control group (n = 5). The mice in the ToAP2D group were injected with ToAP2D through the tail vein at a dose of 60 mg/kg, and the control group mice were injected with the same volume of normal saline. After 24 h, the major organs (e.g., brain, heart, liver, and kidney) of the mice were excised and fixed in 10% buffered formalin for 1 day. The tissues were then embedded in paraffin and sectioned for hematoxylin and eosin (HE) staining.

[4] = system: S. globosa; experiment: Inhibition zone test (paper disk); assay type: cell-based, Sporothrix globosa; settings: 6 µL on 5 mm paper disk, 37°C, 72 h, repeated three times, 5.00 = disk diameter
Method: S. globosa was collected from clinical patients diagnosed with cutaneous sporotrichosis at our hospital. All strains were identified as S. globosa using mycelial-to-yeast phase conversion culture and molecular identification methods. All isolates were grown on Sabouraud’s dextrose agar. After 7 days of culture, the fungal colonies were transferred to brainheart infusion broth and incubated in a rotary shaker (150 rpm/min) at 37°C for another 7 days. S. globosa was centrifuged and resuspended in PBS and diluted to 1.0 × 10^8 cfu/ml.
The antifungal activity of ToAP2A, ToAP2C, and ToAP2D against S. globosa was analyzed using the inhibition zone test. S. globosa was collected and diluted to 1.0 × 10^8 cfu/ml with a hemocytometer. We then evenly inoculated on brainheart infusion broth agar plates with 50 µL aliquots of the dilution. Paper disks with 5 mm diameter were pasted on the surface of the solid culture medium after high-pressure sterilization. ToAP2A, ToAP2C, and ToAP2D (4/2/1 mg/ml) and the control sample (physiological saline with a concentration of 0.9%) were dripped onto the filter paper with 6 µL, respectively, and cultured in 37°C for 72 h to observe whether there is a zone of inhibition. The diameter of the inhibition zone was measured and recorded with a vernier caliper. The above steps were repeated three times to calculate the average value and standard deviation of the inhibition zone diameter of each sample.

[5] = system: S. globosa; experiment: S. globosa footpad infection in mice, skin lesion area; assay type: in vivo, BALB/c mice; settings: itraconazole gavage 60 mg/kg daily from Day 10, mean ± SD, n = 6
Method: The animal protocol was approved by the Institutional Ethics Committee for Animal Use in Research, and our animal care followed Animal Care guidelines of the Jilin University. Mice were randomly divided into study group (n = 51) and the healthy control (HC) group (n = 6). Mice in the study group were injected with 0.05 ml S. globosa suspension (1 × 10^8 cfu/ml) on their footpads after alcohol cotton ball sterilization. The condition of the skin was monitored daily. […] After that, CO2 lattice laser was used to promote ToAP2D absorption, and the mice of the study group were further divided into infection group (n = 12), laser group (n = 12), laser + ToAP2D group (n = 12), and itraconazole group (n = 12), and the antifungal treatments were given subsequently.
In the laser group, the injection feet were subjected to CO2 lattice laser 10,600 nm irradiation at room temperature with an irradiation energy density of 120 mJ/mm^2. The laser scanning area was 15 mm × 15 mm with a lattice density of 0.3 mm and 25.0% coverage rate. The laser treatment was administered every […] on Day 10, 14, 18, and 22. In the laser + ToAP2D group, mice were subjected to CO2 lattice laser irradiation with the same parameters in the laser group to assist the absorption of ToAP2D. Almost immediately after laser irradiation, the antibacterial peptide ToAP2D (4 mg/ml, diluted with 0.9% normal saline) was repeatedly rolled onto the laser-irradiated part of the footpad, until it was completely absorbed every day. In the itraconazole group, mice were gavaged with itraconazole at a dose of 60 mg/kg daily. The size of the footpads of mice was measured every 3 days and analyzed using Photoshop. On Day 18 and 26, six mice in each group were sacrificed, and their feet tissues were collected for further skin histology and immunohistochemistry studies.

[6] = system: Candida albicans; settings: ref Guilhelmelli et al., 2016; cited from earlier work
Description: (§1) As the biological characteristics of S. globosa are very similar to C. albicans, we then use ToAP2structure as a template, through reasonable molecular design and modification, to study the inhibitory e ...

[7] = ref Guilhelmelli et al., 2016; cited from earlier work
Description: as §1

## GDKLIPGVMKLFRKK [ToAP2D]
[1]
  antifungal activity against S. globosa after incubation in serum, compared to the original drug: > 90%
[2]
  minimal inhibitory concentration (MIC): 156.25 µg/mL
[3]
  acute toxicity (HE staining of main organs): no acute toxicity
[4]; 1 mg/ml
  Inhibition zone (mm) mean ± standard deviation (SD): 5.00 ± 0.00 mm
[4]; 2 mg/ml
  Inhibition zone (mm) mean ± standard deviation (SD): 6.86 ± 0.25 mm
[4]; 4 mg/ml
  Inhibition zone (mm) mean ± standard deviation (SD): 11.56 ± 0.36 mm

## GAKLIPGVMKLFRKK [ToAP2C]
[4]; 1 mg/ml
  Inhibition zone (mm) mean ± standard deviation (SD): 5.00 ± 0.00 mm
[4]; 2 mg/ml
  Inhibition zone (mm) mean ± standard deviation (SD): 6.37 ± 0.27 mm
[4]; 4 mg/ml
  Inhibition zone (mm) mean ± standard deviation (SD): 8.12 ± 0.33 mm

## CCC(C)n1ncn(-c2ccc(N3CCN(c4ccc(OCC5COC(Cn6cncn6)(c6ccc(Cl)cc6Cl)O5)cc4)CC3)cc2)c1=O (stereo not shown) [Itraconazole, itraconazole]
[5]; Day14
  Skin lesion area (mm^2): 27.82 ± 2.84 ^** mm^2
[5]; Day18
  Skin lesion area (mm^2): 21.47 ± 0.92 ^*** mm^2
[5]; Day22
  Skin lesion area (mm^2): 14.94 ± 2.93 ^** mm^2
[5]; Day26
  Skin lesion area (mm^2): 11.81 ± 0.85 mm^2

## FFGTLFKLGSKLIPGVMKLFSKKKER [ToAP2]
[6]
  growth of Candida albicans: could inhibit the growth
[7]
  cytotoxic activity: low cytotoxic
  hemolytic activity: low hemolytic

## GSKLIPGVMKLFSKK [ToAP2A]
[4]; 1 mg/ml
  Inhibition zone (mm) mean ± standard deviation (SD): 5.00 ± 0.00 mm
[4]; 2 mg/ml
  Inhibition zone (mm) mean ± standard deviation (SD): 6.59 ± 0.34 mm
[4]; 4 mg/ml
  Inhibition zone (mm) mean ± standard deviation (SD): 9.23 ± 0.34 mm
